This passage reports IC50 results from US7425557B2, “Inhibitors of glycogen synthase kinase 3” (Novartis Vaccines and Diagnostics, Inc., priority 1998, dated 2008).

A word on the IC50: it is the concentration that gives 50% inhibition.

Structures are written as SMILES.

human GSK3β, sequence (P49841 whole entry): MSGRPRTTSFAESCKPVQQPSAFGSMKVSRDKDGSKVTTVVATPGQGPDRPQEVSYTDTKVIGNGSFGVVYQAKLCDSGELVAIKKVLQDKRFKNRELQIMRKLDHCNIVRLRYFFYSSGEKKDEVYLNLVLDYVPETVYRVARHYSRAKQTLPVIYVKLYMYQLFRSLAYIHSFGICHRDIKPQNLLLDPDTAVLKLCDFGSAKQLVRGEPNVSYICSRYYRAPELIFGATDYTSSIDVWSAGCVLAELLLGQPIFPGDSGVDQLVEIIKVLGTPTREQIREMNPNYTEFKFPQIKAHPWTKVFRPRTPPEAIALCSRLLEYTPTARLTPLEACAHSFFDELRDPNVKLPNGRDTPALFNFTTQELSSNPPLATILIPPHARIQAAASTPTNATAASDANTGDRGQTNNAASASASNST

This test has as its target human GSK3β (Homo sapiens, UniProt P49841). Kind of test: Screening for GSK3 inhibitory activity using a cell-free assay. The test is classed as biochemical. To be noted: read-out: IC50 with respect to GSK3. In short, it runs like this:
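Compounds in DMSO were tested against human GSK3β over a three-hour kinase reaction. Radiolabeled phosphate transferred to the peptide was captured on streptavidin plates after EDTA/ATP stop and quantified by scintillation counting. Signal was plotted versus compound concentration.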
For the compound `COC(=O)c1cnc(NCCNc2ccc([N+](=O)[O-])cn2)nc1-c1cccnc1` [methyl 2-({2-[(5-nitro(2-pyridyl))amino]ethyl}amino)-4-(3-pyridyl)pyrimidine-5-carboxylate], the 50% inhibitory concentration (IC50) was ≤ 10 µM. `CN(C)CCc1noc(-c2cnc(NCCNc3ccc([N+](=O)[O-])cn3)nc2-c2ccc(C#N)cc2)n1` [4-[5-{3-[2-(dimethylamino)ethyl](1,2,4-oxadiazol-5-yl)}-2-({2-[(5-nitro(2-pyridyl))amino]-ethyl}amino)pyrimidin-4-yl]benzenecarbonitrile]: the IC50 was ≤ 1 µM.

Consider `N#Cc1cnc(NCCNc2nccc(-c3ccc(C(=O)NCc4cccc(Br)c4)cc3)n2)nc1N` [{4-[2-({2-[(4-amino-5-cyanopyrimidin-2-yl)amino]ethyl}amino)pyrimidin-4-yl]phenyl}-N-[(3-bromophenyl)methyl]carboxamide], for which the half-maximal inhibitory concentration (IC50) was ≤ 1 µM.

For `NC(=O)c1ccc(-c2ccnc(NCc3ccncc3)n2)cc1` [4-{2-[(4-pyridylmethyl)amino]pyrimidin-4-yl}benzamide], the concentration for half-maximal inhibition (IC50) is ≤ 10 µM.

Consider `CCOC(=O)c1cnc(NCCNc2ncccn2)nc1-c1ccc(C#N)cc1` [ethyl 4-(4-cyanophenyl)-2-{[2-(pyrimidin-2-ylamino)ethyl]amino}pyrimidine-5-carboxylate], for which the IC50 is ≤ 10 µM. For `N#Cc1cnc(NCCNc2ccc([N+](=O)[O-])cn2)nc1-c1ccc(Cl)cc1Cl` [4-(2,4-dichlorophenyl)-2-({2-[(5-nitro(2-pyridyl))amino]-ethyl}amino)pyrimidine-5-carbonitrile], the IC50 was ≤ 10 µM. In the case of `Cc1nc(NCCNc2ccc([N+](=O)[O-])cn2)ncc1C(=O)O` [4-methyl-2-({2-[(5-nitro(2-pyridyl))amino]ethyl}amino)pyrimidine-5-carboxylic acid], the IC50 was ≤ 10 µM. The figure for `CCOC(=O)c1ccc(-c2ccnc(NCCNc3ccc([N+](=O)[O-])cn3)n2)cc1` [ethyl 4-[2-({2-[(5-nitro-2-pyridyl)amino]ethyl}amino)pyrimidin-4-yl]benzoate] is ≤ 10 µM; for `Cc1cccc(CNc2ccnc(NCCNc3ccc([N+](=O)[O-])cn3)n2)c1` [[(3-methylphenyl)methyl][2-({2-[(5-nitro-(2-pyridyl))amino]ethyl}amino)pyrimidin-4-yl]amine] it is ≤ 10 µM; for `COc1ccc(CNC(=O)c2ccc(-c3ccnc(NCCNc4ccc([N+](=O)[O-])cn4)n3)cc2)cc1OC` [N-[(3,4-dimethoxyphenyl)methyl]{4-[2-({2-[(5-nitro(2-pyridyl))amino]ethyl}amino)pyrimidin-4-yl]phenyl}carboxamide] it is ≤ 10 µM. The figure for `CCOC(=O)c1cnc(NCCNc2ccc([N+](=O)[O-])cn2)nc1-c1ccc(-c2nnn[nH]2)cc1` [ethyl 4-(4-(1H-1,2,3,4-tetraazol-5-yl)phenyl)-2-({2-[(5-nitro(2-pyridyl))amino]ethyl}amino)pyrimidine-5-carboxylate] is ≤ 1 µM; for `Nc1nc(NCCNc2ncc(CO)c(-c3ccc(Cl)cc3Cl)n2)ccc1[N+](=O)[O-]` [[2-({2-[(6-amino-5-nitro(2-pyridyl))amino]ethyl}amino)-4-(2,4-dichlorophenyl)pyrimidin-5-yl]methan-1-ol] it is ≤ 1 µM; for `O=C(O)c1c(-c2ccc([N+](=O)[O-])cc2)nc(NCCNc2ccc([N+](=O)[O-])cn2)nc1-c1ccnc2ccccc12` [2-({2-[(5-nitro(2-pyridyl))amino]ethyl}amino)-6-(4-nitrophenyl)-4-(4-quinolyl)pyrimidine-5-carboxylic acid] it is ≤ 10 µM.

Turning to `NC(=O)c1ccc(-c2ccnc(NCCNc3ncccn3)n2)cc1` [4-(2-{[2-(pyrimidin-2-ylamino)ethyl]amino}pyrimidin-4-yl)benzamide], the IC50 was ≤ 1 µM. The figure for `Cc1c[nH]c(-c2cnc(NCCNc3ccc([N+](=O)[O-])c(N)n3)nc2-c2ccc(Br)cc2Cl)n1` [{2-[(6-amino-5-nitro(2-pyridyl))amino]ethyl}[4-(4-bromo-2-chlorophenyl)-5-(4-methylimidazol-2-yl)pyrimidin-2-yl]amine] is ≤ 1 µM; for `O=[N+]([O-])c1ccc(NCCNc2nccc(NCc3ccc(Cl)cc3)n2)nc1` [[(4-chlorophenyl)methyl][2-({2-[(5-nitro(2-pyridyl))amino]ethyl}amino)pyrimidin-4-yl]amine] it is ≤ 10 µM. On to `CCOC(=O)c1cnc(NCCNc2ncc(C#N)c(N)n2)nc1-c1ccc(C#N)cc1` [ethyl 2-({2-[(4-amino-5-cyanopyrimidin-2-yl)amino]ethyl}amino)-4-(4-cyanophenyl)pyrimidine-5-carboxylate], for which the IC50 is ≤ 1 µM. The value for `N#Cc1ccc(-c2nc(NCCNc3ccc([N+](=O)[O-])cn3)ncc2-c2ncc[nH]2)cc1` [4-[5-imidazol-2-yl-2-({2-[(5-nitro(2-pyridyl))amino]ethyl}amino)pyrimidin-4-yl]benzenecarbonitrile] was ≤ 1 µM. The figure for `N#Cc1ccc(-c2ccnc(NCCc3ccccn3)n2)cc1` [4-{2-[(2-(2-pyridyl)ethyl)-amino]pyrimidin-4-yl}benzenecarbonitrile] is ≤ 10 µM; for `CCOC(=O)c1cnc(NCCNc2ccc(C(=O)O)cn2)nc1-c1ccc(C#N)cc1` [6-[(2-{[4-(4-cyanophenyl)-5-(ethoxycarbonyl)pyrimidin-2-yl]amino}ethyl)amino]pyridine-3-carboxylic acid] it is ≤ 10 µM. The figure for `O=C(NCc1cccs1)c1ccc(-c2ccnc(NCCNc3ccc([N+](=O)[O-])cn3)n2)cc1` [{4-[2-({2-[(5-nitro(2-pyridyl))amino]ethyl}amino)-pyrimidin-4-yl]phenyl}-N-(2-thienylmethyl)carboxamide] is ≤ 10 µM; for `CN(C)CCOC(=O)c1cnc(NCCNc2ccc([N+](=O)[O-])c(N)n2)nc1-c1ccc(Cl)cc1Cl` [2-(dimethylamino)ethyl 2-({2-[(6-amino-5-nitro(2-pyridyl))amino]ethyl}amino)-4-(2,4-dichlorophenyl)pyrimidine-5-carboxylate] it is ≤ 1 µM. As for `O=[N+]([O-])c1ccc(NCCNc2ccc([N+](=O)[O-])c(NCc3ccc(Cl)cc3Cl)n2)nc1` [(6-{[(2,4-dichlorophenyl)methyl]amino}-5-nitro(2-pyridyl)){2-[(5-nitro(2-pyridyl))amino]ethyl}amine], the IC50 was ≤ 10 µM. Regarding `O=[N+]([O-])c1cnc(NCCNc2ccccn2)nc1-c1ccccc1` [(5-nitro-4-phenylpyrimidin-2-yl)[2-(2-pyridylamino)ethyl]amine], the 50% inhibitory concentration (IC50) is ≤ 1 µM. Take `CCCCNC(=O)c1cnc(NCCNc2ccc([N+](=O)[O-])cn2)nc1-c1ccc(C#N)cc1` [N-butyl[4-(4-cyanophenyl)-2-({2-[(5-nitro(2-pyridyl))amino]ethyl}amino)pyrimidin-5-yl]carboxamide]: the 50% inhibitory concentration (IC50) was ≤ 1 µM. Take `Cc1cn(-c2cnc(NCCNc3ccc([N+](=O)[O-])cn3)nc2-c2ccc(Cl)cc2Cl)c(C)n1` [[4-(2,4-dichlorophenyl)-5-(2,4-dimethylimidazolyl)pyrimidin-2-yl]{2-[(5-nitro(2-pyridyl))amino]ethyl}amine]: the IC50 was ≤ 1 µM. Turning to `NC(=O)c1ccc(-c2ccnc(NCCCCc3ccccc3)n2)cc1` [4-{2-[(4-phenylbutyl)amino]-pyrimidin-4-yl}benzamide], the concentration for half-maximal inhibition (IC50) is ≤ 10 µM. The figure for `N#Cc1ccc(NCCNc2ccc([N+](=O)[O-])c(NCc3ccccc3)n2)nc1` [6-{[2-({5-nitro-6-[benzylamino]-2-pyridyl}amino)ethyl]amino}pyridine-3-carbonitrile] is ≤ 10 µM; for `NC(=O)c1ccc(-c2ccnc(NCc3cccc(C(F)(F)F)c3)n2)cc1` [4-[2-({[3-(trifluoromethyl)phenyl]methyl}amino)pyrimidin-4-yl]-benzamide] it is ≤ 10 µM.

Regarding `N#Cc1ccc(-c2nc(NCCNc3ccc([N+](=O)[O-])cn3)ncc2C#N)cc1` [4-(4-cyanophenyl)-2-({2-[(5-nitro(2-pyridyl))amino]ethyl}amino)pyrimidine-5-carbonitrile], the IC50 is ≤ 1 µM. As for `CCOC(=O)c1cnc(NCCNc2ccc([N+](=O)[O-])cn2)nc1-c1ccc([N+](=O)[O-])cc1`, the concentration for half-maximal inhibition (IC50) was ≤ 1 µM. The value for `CCOC(=O)c1cnc(NCCc2ccccn2)nc1-c1ccc(OC)cc1` [ethyl 4-(4-methoxyphenyl)-2-[(2-(2-pyridyl)ethyl)amino]pyrimidine-5-carboxylate] was ≤ 10 µM; that for `COc1ccc(OC)c(CCNc2nccc(-c3cccnc3)n2)c1` [[2-(2,5-dimethoxyphenyl)ethyl](4-(3-pyridyl)pyrimidin-2-yl)amine] was ≤ 10 µM; that for `NC(=O)c1ccc(-c2ccnc(NCc3cccc(Cl)c3)n2)cc1` [4-(2-{[(3-chlorophenyl)methyl]amino}pyrimidin-4-yl)benzamide] was ≤ 10 µM. The value for `COc1cccc(CCNc2nccc(-c3ccc(C(N)=O)cc3)n2)c1` [4-(2-{[2-(3-methoxyphenyl)ethyl]amino}pyrimidin-4-yl)-benzamide] was ≤ 10 µM.

With `N#Cc1cnc(NCCNc2ccc([N+](=O)[O-])cn2)nc1-c1ccc(Cl)c(Cl)c1` [4-(3,4-dichlorophenyl)-2-({2-[(5-nitro(2-pyridyl))amino]ethyl}amino)pyrimidine-5-carbonitrile], the half-maximal inhibitory concentration (IC50) was ≤ 10 µM. The figure for `CNCC(=O)Nc1cnc(NCCNc2ccc([N+](=O)[O-])c(N)n2)nc1-c1ccc(Cl)cc1Cl` [N-[2-({2-[(6-amino-5-nitro(2-pyridyl))amino]ethyl}amino)-4-(2,4-dichlorophenyl)pyrimidin-5-yl]-2-(methylamino)acetamide] is ≤ 1 µM. The value for `CCOC(=O)c1cnc(NCCNc2ccc([N+](=O)[O-])cn2)nc1-c1ccc(N2CCOCC2)nc1` [ethyl 4-(6-morpholin-4-yl(3-pyridyl))-2-({2-[(5-nitro(2-pyridyl))amino]-ethyl}amino)pyrimidine-5-carboxylate] was ≤ 1 µM; that for `N#Cc1ccc(-c2nc(NCCNc3ccc([N+](=O)[O-])cn3)ncc2C(=O)NCc2ccccc2)cc1` [[4-(4-cyanophenyl)-2-({2-[(5-nitro(2-pyridyl))amino]ethyl}amino)pyrimidin-5-yl]-N-benzylcarboxamide] was ≤ 1 µM.
